Measured values as given in ChEMBL document CHEMBL1134447 (J Med Chem, 2001).

Experiments:
physchem [1] = conditions: buffer
physchem [2] = conditions: octanol/water, pH 7.4

Work on O=C(OCc1cc2c(cc1Cl)OCO2)N1CCC(n2c(O)nc3ccccc32)CC1 yielded a solubility (physchem [1]) of less than 10 µM and a logD (physchem [2]) of 4.2.

With O=C(OC1CCc2ccccc21)N1CCC2(CC1)C(=O)NCN2c1ccccc1 (stereo not drawn) the solubility (physchem [1]) was less than 10 µM and the logD (physchem [2]) was greater than 4.

Work on O=C(NCCCn1c(=O)[nH]c2ccccc21)OCc1cc2c(cc1Cl)OCO2 yielded a solubility (physchem [1]) of less than 10 µM and a logD (physchem [2]) greater than 4.

Molecule O=C(OCc1cccc(Oc2ccccc2)c1)N1CCC2(CC1)C(=O)NCN2c1ccccc1 has a solubility (physchem [1]) of less than 10 µM and a logD (physchem [2]) greater than 4.
